From US20240425491A1, “HETEROARYL COMPOUNDS USEFUL IN THE TREATMENT OF COGNITIVE DISORDERS” (University College Cardiff Consultants Limited, priority 2021, published 2024) come the findings set out here.

Test [1] has as its target T1, human α5β3γ2 GABAARs in mouse L(tk−) cells (Homo sapiens, UniProt P18507+P31644).
T1 construct: expressed in transfected cells; host or cells: mouse L(tk−) cells, dexamethasone-inducible vector pMSGneo
Nature of the test: In vitro electrophysiological recording assay (α5-GABAAR relative efficacy), QPatch. It counts as cell-based. To be noted: GABA EC10-20. An outline of the steps: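 Whole-cell QPatch recordings at 20-22° C, −65 mV holding, in dexamethasone-induced (1 μM, 24 h) L(tk−) cells. Compound pre-applied ≥1 min, then co-applied with GABA EC10-20; percentage change in leak-corrected peak current, taken at ≥100× Ki, normalised to DMCM efficacy; 0.1% DMSO final.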
(Patch clamp records ionic current or voltage across a cell membrane.)

Test [2] deals with T2, human recombinant GABAAR containing α5β3γ2 subunits (benzodiazepine site) (Homo sapiens, UniProt P18507+P31644).
T2 construct: expressed in transfected cells; host or cells: mouse L(tk−) cells, dexamethasone-inducible vector pMSGneo
T2 sequence (P31644 32-462): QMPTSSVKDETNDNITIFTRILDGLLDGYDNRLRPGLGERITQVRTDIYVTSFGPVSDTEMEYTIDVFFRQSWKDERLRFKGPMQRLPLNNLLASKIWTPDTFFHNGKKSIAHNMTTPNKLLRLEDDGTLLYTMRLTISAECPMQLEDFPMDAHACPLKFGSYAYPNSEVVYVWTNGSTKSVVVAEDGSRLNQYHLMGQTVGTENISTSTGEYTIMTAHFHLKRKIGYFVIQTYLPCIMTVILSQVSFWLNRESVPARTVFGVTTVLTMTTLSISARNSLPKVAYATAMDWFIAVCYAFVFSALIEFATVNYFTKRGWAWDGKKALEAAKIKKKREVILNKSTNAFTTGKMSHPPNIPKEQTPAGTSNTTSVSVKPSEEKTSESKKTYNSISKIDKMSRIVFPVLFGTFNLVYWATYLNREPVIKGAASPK
T2 sequence (P28472 26-473 partner): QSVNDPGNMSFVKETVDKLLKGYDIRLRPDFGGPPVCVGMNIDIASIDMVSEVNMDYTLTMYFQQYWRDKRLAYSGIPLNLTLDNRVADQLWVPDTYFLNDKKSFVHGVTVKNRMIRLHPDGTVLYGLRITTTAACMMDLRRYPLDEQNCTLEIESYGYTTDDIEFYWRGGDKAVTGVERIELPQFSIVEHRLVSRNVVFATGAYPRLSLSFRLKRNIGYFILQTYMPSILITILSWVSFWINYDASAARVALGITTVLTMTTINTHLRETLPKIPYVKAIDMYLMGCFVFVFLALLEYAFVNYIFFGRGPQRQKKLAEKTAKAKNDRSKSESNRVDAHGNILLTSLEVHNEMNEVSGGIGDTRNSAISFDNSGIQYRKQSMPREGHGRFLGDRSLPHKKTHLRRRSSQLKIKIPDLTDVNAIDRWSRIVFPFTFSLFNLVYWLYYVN
T2 sequence (P18507 40-475): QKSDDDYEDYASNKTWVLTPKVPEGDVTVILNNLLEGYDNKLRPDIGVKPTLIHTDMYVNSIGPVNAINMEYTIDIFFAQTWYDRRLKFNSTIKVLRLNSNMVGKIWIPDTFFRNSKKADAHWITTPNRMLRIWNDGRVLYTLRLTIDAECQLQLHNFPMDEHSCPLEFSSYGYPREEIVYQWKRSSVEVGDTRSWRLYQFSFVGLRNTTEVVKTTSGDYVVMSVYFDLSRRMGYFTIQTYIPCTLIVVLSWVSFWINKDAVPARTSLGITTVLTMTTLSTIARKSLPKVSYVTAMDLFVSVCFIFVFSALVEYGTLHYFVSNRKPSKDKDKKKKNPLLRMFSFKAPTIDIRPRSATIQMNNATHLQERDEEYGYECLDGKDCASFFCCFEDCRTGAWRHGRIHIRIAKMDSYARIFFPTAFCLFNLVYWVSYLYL
Nature of the test: In vitro radioligand binding assay (α5-GABAAR Ki). The settings on record: inhibition of [3H]Ro15-1788 binding, membranes of L(tk−) cells expressing human α5β3γ2; read-out: α5-GABAAR Ki. An outline of the steps: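 Membranes from mouse L(tk^−) cells stably expressing human α5β3γ2 GABAAR incubated 1 h at 4° C with 4 nM [^3H]Ro15-1788 and test compound; nonspecific binding with 1 μM TP003. Filter-bound radioactivity counted; Ki from IC50 by Cheng-Prusoff using measured Kd.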

Test [3] deals with T3, human α5β3γ2L GABAA receptors in HEK293 cells (Homo sapiens, UniProt P18507+P31644).
T3 construct: expressed in transfected cells
T3 sequence (P31644 32-462): as the sequence (P31644 32-462) above
T3 sequence (P28472 26-473 partner): as the sequence (P28472 26-473 partner) above
T3 sequence (P18507 40-475): as the sequence (P18507 40-475) above
Nature of the test: In vitro electrophysiological recording assay (α5-GABAAR relative efficacy), SyncroPatch. To be noted: Conc 0.1 μM; GABA EC10-20. It counts as cell-based. The source says: Mouse L(tk^−) cells stably expressing human α1β3γ2, α2β3γ2, α3β3γ2, α5β3γ2 GABAARs generated by transfection of the individual subunits in the dexamethasone-inducible expression vector pMSGneo in mouse L(tk^−) cells (Hadingham et al., 1993, Mol. Pharmacol. 43:970-975 and 1993, Mol. Pharmacol. 44:1211-1218) were used for binding and functional assays. For certain compounds, HEK293 cells stable expressing the human α1β3γ2L, α2β3γ2L, α3β3γ2L and α5β3γ2L GABAA receptors were used to evaluate their functional effects in a SyncroPatch electrophysiology assay.
The efficacy of modulators was evaluated using either the automated patch-clamp platform QPatch16 (Sophion, Copenhagen, Denmark) or the SyncroPatch 384i (Nanion Technologies, Germany). Cells were harvested from flasks by enzymatic dissociation and re-suspended in serum-free medium.
For the Syncropatch recordings, a stacked addition protocol was used, in which GABA was rapidly applied and then washed off from the cell. All experiments were carried out at room temperature (20-22° C.) using a standard whole cell procedure. The currents recorded were acquired at 2 kHz and filtered using a Bessel filter. Whole-cell currents were measured at a holding potential of −80 mV.
For Syncropatch recordings, the extracellular recording solution contained: 140 mM NaCl, 4 mM KCl, 2 mM CaCl2), 1 mM MgCl2, 10 mM HEPES, 5 mM glucose (pH 7.4 and osmolarity of c. 300-310 mOsm/L). The intracellular recording solution contained: 90 mM KCl, 50 mM KF, 1.5 mM MgCl2, 11.1 mM EGTA and 10 mM HEPES (pH 7.2 and osmolarity of c. 300 mOsm/L). 2 mM of NaATP was added to the intracellular solution on the day of testing.
The effects of modulators were evaluated in the presence of a submaximal GABA concentration, giving typically 10-20% activation (GABA EC10-20) of the response elicited by a saturating GABA concentration. For QPatch recordings, to check and ensure baseline current stability before compound addition, five consecutive applications of GABA EC10-20 alone (each application with a 2 s duration, separated by minimum 1 min wash off periods) were performed before compound addition. The test compound was applied using the pipetting system of the QPatch system 1 min at least prior to co-application with GABA EC10-20. For SyncroPatch recordings, GABA EC20 alone was applied three times (1 s long applications, with wash steps in-between) before compound addition. This was followed by a 1-2 min pre-incubation with the test compound and then re-application of GABA EC10-20 in the presence of the compound. Finally, following a further wash step, a saturating concentration of GABA was applied, allowing the accurate evaluation for each cell of the percentage baseline activation elicited by the submaximal GABA applied.
The compounds were first dissolved in DMSO as a 10 mM stock and then further diluted to the testing concentrations so that the final DMSO concentration in the extracellular recording solution was kept constant at 0.1% for the QPatch recordings, or 0.2% for the SyncroPatch recordings.
The % efficacy of modulators was determined from the GABA elicited currents recorded in the presence and absence of the test compound, using the formula:
[((compound peak current−leak)−(GABA peak current−leak))/(GABA peak current−leak)]*100,
where ‘leak’ is the leak baseline current at −65 mV, ‘compound peak current’ is the current elicited by co-application of compound and GABA, and ‘GABA peak current’ is the current elicited by GABA alone during the 5th GABA application. The results were presented as ‘relative efficacy’ for each compound generally at a concentration equal or higher than 100 times their determined Ki. The relative efficacy of a compound was calculated by normalising its efficacy to the efficacy of methyl-6,7-dimethoxy-4-ethyl-beta-carboline-3-carboxylate (DMCM) that was separately determined produced an attenuation of GABA-induced currents of −57±4%, n=5.

T1 sequence (P31644 32-462): as the sequence (P31644 32-462) above
T1 sequence (P28472 26-473 partner): as the sequence (P28472 26-473 partner) above
T1 sequence (P18507 40-475): as the sequence (P18507 40-475) above

For the molecule `COc1nc(-c2cnc(C(N)=O)nc2)ccc1NC(=O)c1c(-c2ccccc2)noc1C` [Example 129, N-[6-(2-Carbamoylpyrimidin-5-yl)-2-methoxy-3-pyridyl]-5-methyl-3-phenyl-isoxazole-4-carboxamide], the “α5-GABAAR Relative Efficacy (to DMCM), Qpatch” value in test [1] (Conc 0.1 μM) is reported as −0.77. The Ki in test [2] came out at 0.8 nM. The “α5-GABAAR Relative Efficacy (to DMCM), SyncroPatch” value in test [3] was −0.72.

Regarding `COc1nc(-c2cncc(OC(F)F)c2)ccc1NC(=O)c1c(-c2ccccc2)noc1C` [Example 87, N-(5′-(Difluoromethoxy)-6-methoxy-[2,3′-bipyridin]-5-yl)-5-methyl-3-phenylisoxazole-4-carboxamide], the “α5-GABAAR Relative Efficacy (to DMCM), Qpatch” value in test [1] (Conc 1 μM) is −0.71. The Ki in test [2] turned out to be 5 nM. The “α5-GABAAR Relative Efficacy (to DMCM), SyncroPatch” value in test [3] was −0.44.

For `COc1nc(-c2cnc(CN)nc2)ccc1NC(=O)c1c(-c2ccc(F)cc2)noc1C.Cl` [Example 185, N-[6-[2-(Aminomethyl)pyrimidin-5-yl]-2-methoxy-3-pyridyl]-3-(4-fluorophenyl)-5-methyl-isoxazole-4-carboxamide hydrochloride], the “α5-GABAAR Relative Efficacy (to DMCM), Qpatch” value in test [1] (Conc 0.1 μM) is reported as −0.79. Moreover, the Ki in test [2] worked out at 0.5 nM. Further, the “α5-GABAAR Relative Efficacy (to DMCM), SyncroPatch” value in test [3] is reported as −1.23.

In the case of `COc1nc(-c2cnn3ncccc23)ccc1NC(=O)c1c(-c2ccccc2)noc1C` [Example 83, N-(2-Methoxy-6-(pyrazolo[1,5-b]pyridazin-3-yl)pyridin-3-yl)-5-methyl-3-phenylisoxazole-4-carboxamide], in test [1] (Conc 3 μM), the “α5-GABAAR Relative Efficacy (to DMCM), Qpatch” value is −0.71. In addition, the Ki in test [2] was found to be 13 nM. Further, the “α5-GABAAR Relative Efficacy (to DMCM), SyncroPatch” value in test [3] is reported as −0.50.

Take `COc1nc(-c2cnc(CN)nc2)ccc1NC(=O)c1c(-c2ccccc2)noc1C.Cl` [Example 126, N-[6-[2-(Aminomethyl)pyrimidin-5-yl]-2-methoxy-3-pyridyl]-5-methyl-3-phenyl-isoxazole-4-carboxamide hydrochloride]: the “α5-GABAAR Relative Efficacy (to DMCM), Qpatch” value in test [1] (Conc 0.3 μM) is reported as −0.68. Besides, the inhibitory constant (Ki) in test [2] is 1.1 nM. Also, the “α5-GABAAR Relative Efficacy (to DMCM), SyncroPatch” value in test [3] is listed as −0.55.

Take `COc1nc(-c2cnc(CN(C)C)nc2)cnc1NC(=O)c1c(-c2ccccc2)noc1C` [Example 144, N-[5-[2-[(Dimethylamino)methyl]pyrimidin-5-yl]-3-methoxy-pyrazin-2-yl]-5-methyl-3-phenyl-isoxazole-4-carboxamide]: in test [1] (Conc 0.3 μM), the “α5-GABAAR Relative Efficacy (to DMCM), Qpatch” value is listed as −0.95. The Ki in test [2] is 1.4 nM. Besides, the “α5-GABAAR Relative Efficacy (to DMCM), SyncroPatch” value in test [3] is −1.05.

As for `COc1nc(-c2cnoc2)ccc1NC(=O)c1c(-c2ccccc2)noc1C` [Example 68, N-(6-Isoxazol-4-yl-2-methoxy-3-pyridyl)-5-methyl-3-phenyl-isoxazole-4-carboxamide], in test [1] (Conc 1 μM), the “α5-GABAAR Relative Efficacy (to DMCM), Qpatch” value is −0.66. The Ki in test [2] was determined as 3.2 nM. For the same molecule, the “α5-GABAAR Relative Efficacy (to DMCM), SyncroPatch” value in test [3] is listed as −0.56.

In the case of `COc1nc(-c2cnc(C(F)(F)F)nc2)ccc1NC(=O)c1c(-c2ccccc2)noc1C` [Example 53, N-[2-Methoxy-6-[2-(trifluoromethyl)pyrimidin-5-yl]-3-pyridyl]-5-methyl-3-phenyl-isoxazole-4-carboxamide], in test [1] (Conc 0.3 μM), the “α5-GABAAR Relative Efficacy (to DMCM), Qpatch” value is −0.92. Also, the Ki in test [2] is 2.4 nM. In test [3], the “α5-GABAAR Relative Efficacy (to DMCM), SyncroPatch” value is on record as −0.83.

With `COc1nc(-n2ccnc2)ccc1NC(=O)c1c(-c2ccc(F)cc2)noc1C` [Example 141, 3-(4-Fluorophenyl)-N-(6-imidazol-1-yl-2-methoxy-3-pyridyl)-5-methyl-isoxazole-4-carboxamide], the “α5-GABAAR Relative Efficacy (to DMCM), Qpatch” value in test [1] (Conc 0.3 μM) is on record as −0.93. In test [2], the Ki is 1.9 nM. In addition, in test [3], the “α5-GABAAR Relative Efficacy (to DMCM), SyncroPatch” value was −1.13.

`Cc1onc(-c2ccccc2)c1C(=O)Nc1ccc(-n2ccnc2)nc1OC(C)C` [Example 206, N-(6-(1H-Imidazol-1-yl)-2-isopropoxypyridin-3-yl)-5-methyl-3-phenylisoxazole-4-carboxamide]: in test [1] (Conc 0.3 μM), the “α5-GABAAR Relative Efficacy (to DMCM), Qpatch” value was −0.55. Besides, in test [2], the inhibition constant Ki came to 1.7 nM. For the same molecule, in test [3], the “α5-GABAAR Relative Efficacy (to DMCM), SyncroPatch” value is reported as −1.03.

The Ki is a measure of affinity in units of concentration, obtained from inhibition or displacement.
